Assay results as given in ChEMBL document CHEMBL1201862, “PubChem BioAssay data set” (2004).
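Cultured in 96-well plates, cells were exposed to test compound for 48 hours across five concentrations. GI50 is the concentration that inhibits growth by half.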 The source made the active and inactive calls. Cut-off read from the data, not from the text of the source: active = GI50 up to about 1.1 µM and inactive = higher.

Assays:
Experiment in all cases: NCI tumour cell line growth inhibition, 48 h
[1] = test system: COLO 205
[2] = test system: HT-29
[3] = test system: MDA-N
[4] = test system: U-251
[5] = test system: HCT-116
[6] = test system: ACHN
[7] = test system: SNB-19
[8] = test system: SF-295
[9] = test system: NCI-H23
[10] = test system: A549
[11] = test system: MOLT-4
[12] = test system: SK-MEL-2
[13] = test system: 786-0
[14] = test system: T47D
[15] = test system: K562
[16] = test system: NCI-H522
[17] = test system: RXF 393
[18] = test system: CCRF-CEM
[19] = test system: SNB-75
[20] = test system: MDA-MB-231
[21] = test system: M14
[22] = test system: RPMI-8226
[23] = test system: UACC-257
[24] = test system: Hs-578T
[25] = test system: SK-OV-3
[26] = test system: UACC-62
[27] = test system: SW-620
[28] = test system: OVCAR-3
[29] = test system: SK-MEL-5
[30] = test system: HOP-92
[31] = test system: KM12
[32] = test system: NCI/ADR-RES
[33] = test system: HL-60
[34] = test system: OVCAR-5
[35] = test system: CAKI-1
[36] = test system: OVCAR-8
[37] = test system: NCI-H460
[38] = test system: A498
[39] = test system: PC-3
[40] = test system: TK-10
[41] = test system: NCI-H226
[42] = test system: SF-268
[43] = test system: BT-549
[44] = test system: MDA-MB-435
[45] = test system: UO-31
[46] = test system: Malme-3M
[47] = test system: IGROV-1
[48] = test system: HOP-62
[49] = test system: EKVX
[50] = test system: SN12C
[51] = test system: HCT-15
[52] = test system: DU-145
[53] = test system: SK-MEL-28
[54] = test system: LOX IMVI

Measured: GI50

CC1(C)O[C@@H]([C@@H](O)[C@H](O)C2SCCCS2)[C@@H](CO)O1
> 100 µM: [51]
inactive: [1] > 100 µM | [2] > 100 µM | [3] > 100 µM | [4] > 100 µM | [5] > 100 µM | [6] > 100 µM | [7] > 100 µM | [8] > 100 µM | [9] > 100 µM | [10] > 100 µM | [11] > 100 µM | [12] > 100 µM | [13] > 100 µM | [14] > 100 µM | [15] > 100 µM | [16] > 100 µM | [17] > 100 µM | [18] > 100 µM | [19] > 100 µM | [20] > 100 µM | [21] > 100 µM | [22] > 100 µM | [23] > 100 µM | [24] > 100 µM | [25] > 100 µM | [26] > 100 µM | [27] > 100 µM | [28] > 100 µM | [29] > 100 µM | [30] > 100 µM | [31] > 100 µM | [32] > 100 µM | [33] > 100 µM | [34] > 100 µM | [35] > 100 µM | [36] > 100 µM | [37] > 100 µM | [38] > 100 µM | [39] > 100 µM | [40] > 100 µM | [41] > 100 µM | [42] > 100 µM | [43] > 100 µM | [44] > 100 µM | [45] > 100 µM | [46] > 100 µM | [47] > 100 µM | [48] > 100 µM | [49] > 100 µM | [50] > 100 µM | [52] > 100 µM | [53] > 100 µM | [54] > 100 µM
